{
  "source": "patent US4440757A",
  "about": "“Pharmaceutical composition comprising derivative of aminobenzoic acid for regulating prostaglandin” (priority 1978, dated 1984)",
  "test_system": "MH-134 tumor",
  "assay": "Preventing the metastasis of a transplanted tumour",
  "assay_type": "in vivo, C3H/He mouse",
  "conditions": "for Number of metastatic lesion: not administered 4.5",
  "experimental": "Cells of MH-134 tumor were transplanted to a C3 H/He mouse from its caudal vein at a rate of 2×10^6 cells/animal. The present substance, Specimen No. 7, was administered to the mouse respectively, 6, 3 and one hours before, and 1, 3 and 6 hours after the transplantation once at a rate of 1000 mg/kg forcibly p.o.\nThe mouse was sacrificed on 14th day of the transplantation to extirpate the lungs to examine the number of the metastatic lesion.",
  "data": [
    {"compound": "O=C(O)c1ccc(NC2OC[C@@H](O)[C@H](O)[C@H]2O)cc1", "note": "(stereo partly drawn) [Specimen No. 7, Sodium p-aminobenzoate-N--D-xyloside]", "values": [
      {"measurement": "Rate of positive metastasis", "setting": "1000 mg/kg p.o. 1 hour after, printed 7/10", "result": 70, "unit": "%"},
      {"measurement": "Rate of positive metastasis", "setting": "1000 mg/kg p.o. 1 hour before, printed 7/9", "result": 77.8, "unit": "%"},
      {"measurement": "Rate of positive metastasis", "setting": "1000 mg/kg p.o. 3 hours after, printed 9/10", "result": 90, "unit": "%"},
      {"measurement": "Rate of positive metastasis", "setting": "1000 mg/kg p.o. 3 hours before, printed 8/9", "result": 88.9, "unit": "%"},
      {"measurement": "Rate of positive metastasis", "setting": "1000 mg/kg p.o. 6 hours after, printed 10/10", "result": 100, "unit": "%"},
      {"measurement": "Rate of positive metastasis", "setting": "1000 mg/kg p.o. 6 hours before transplantation, printed 10/10", "result": 100, "unit": "%"},
      {"measurement": "Number of metastatic lesion", "setting": "1 hour after", "result": 2.6},
      {"measurement": "Number of metastatic lesion", "setting": "1 hour before", "result": 2.2},
      {"measurement": "Number of metastatic lesion", "setting": "3 hours after", "result": 3.0},
      {"measurement": "Number of metastatic lesion", "setting": "3 hours before", "result": 1.9},
      {"measurement": "Number of metastatic lesion", "setting": "6 hours after", "result": 3.5},
      {"measurement": "Number of metastatic lesion", "setting": "6 hours before", "result": 2.3}
    ]}
  ]
}
